This is an account of results in PubChem BioAssay (NCI).

“And” between values parts separate entries of the source, which are not always exact repeats. Equal entries are not always repeated.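 Dose response: 5 concentrations. Exposure: 48 h. Format: 96-well plates. Endpoint: linear interpolation; highest concentration if not reached. GI50: concentration for 50% inhibition of growth. At the TGI there is no net growth.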

The subject of the first test is MOLT-4 leukemia. The test can be described thus: NCI-60 cell line screen, 48 h.
Take `Cn1cnc([N+](=O)[O-])c1S(=O)(=O)Oc1ccccc1`: the GI50 was 3.65 µM and the TGI was 18.9 µM.

Turning to `COc1cc(C2c3cc4c(cc3C(O)C(CO)C2CO)OCO4)cc(OC)c1OC` (stereo not drawn), the GI50 was 1.59 µM and the TGI was above 100 µM.

As for `CCCNC(=S)/N=C/c1c(O)c2ccccc2[nH]c1=O`, the TGI was above 100 µM.

Take `COc1ccc(-c2oc(=O)ccc2-c2cc(OC)c(OC)c(OC)c2)cc1F`: the GI50 is 22.4 µM and the TGI was above 100 µM.

`O=C(c1ccc(F)c(F)c1Nc1ccc(I)cc1F)N1CC(O)([C@@H]2CCCCN2)C1`: the GI50 was 4.62 µM and 5.26 µM; the TGI was 18.8 µM and > 10 µM.

Regarding `Oc1cc(O)c2c(c1)OC(c1ccc(O)c(O)c1)C(OC1(c3cc(O)c(O)c(O)c3)Oc3cc(O)cc(O)c3C(O)C1O)C2` (stereo not drawn), the TGI worked out at 52.8 µM.

As to `COC12C=C/C(=C(/C(=O)OCc3ccncc3)C(=O)CCCCCCCCC3(OC)C=C/C(=C(/C(=O)OCc4ccncc4)C(=O)CCCCCCCC1)O3)O2`, the GI50 was 0.172 µM and the TGI was determined as 1.85 µM.

For the compound `CCOc1ccc2nc(S/C(=C/C=C(C#N)C#N)c3ccc(C)cc3)sc2c1`, the GI50 was 3.03 µM and the TGI is 8.5 µM.

As to `COc1cc(CNCCCN2C(=O)c3ccc4c5c(ccc(c35)C2=O)C(=O)N(CCCNCc2cc(OC)c(OC)c(OC)c2)C4=O)cc(OC)c1OC`, the GI50 is 0.147 µM and the TGI amounted to 0.6 µM.

As to `CC(C)=CCc1cc(O)cc2c1OC(C=C(C)C)C1=C2C(=O)C2=C(NCCS2(=O)=O)C1=O` (stereo not drawn), the GI50 is 2.23 µM and the TGI was determined as 7.19 µM.

For `O=c1[nH]c(=O)n(C2CC(O)C(CO)O2)cc1CO` (stereo not drawn), the GI50 was above 100 µM and the TGI is above 100 µM.

For the compound `Cc1nc2cnc(N)c(C#Cc3cncc(C(=O)Nc4ccc(CN5CCN(C)CC5)c(C(F)(F)F)c4)c3)c2nc1C`, the GI50 is 0.859 µM and the TGI stood at 18.3 µM.

With `O=C1NC(=S)NNC12c1ccccc1-c1ccccc12`, the TGI is above 10 µM.

Turning to `CC(=O)OC12c3ccccc3-c3ccccc3C1C1C(=O)N(C)C(=O)C12Cl` (stereo not drawn), the TGI is above 10 µM.

Compound `COc1ccc(C(O)c2nccn2C)c(OC)c1` (stereo not drawn) gave a TGI above 100 µM.

For the compound `C1CSCCSCCS1`, the TGI is above 100 µM.

The compound `CCSc1[nH]c(Nc2nc(-c3ccccc3)n(-c3ccccc3)n2)c(C(N)=O)c1C(N)=O` returned a TGI above 10 µM.

With `COc1ccc2[nH]cc(-c3nc(-c4c[nH]c5ncccc45)cs3)c2c1`, the GI50 was 3.13 µM and the TGI is above 100 µM.

In turn, `O=c1cc(-c2ccccc2)[nH]c2c(S)cccc12` came in with a TGI above 100 µM.

The compound `N#Cc1c(-c2ccc(F)cc2)c(-c2ccc(F)cc2)nn(CCO)c1=O` showed a TGI above 100 µM.

Take `CN(C)c1c([O-])c(=[N+](C)C)c1=O`: the TGI is above 100 µM.

Another test has as its system SW-620 colon. Description: NCI-60 cell line screen, 48 h.
On to `Nc1nccc2c1ccn2-c1ccc(NC(=O)c2ccc(N3CCOCC3)c(C(F)(F)F)c2)cc1`, for which the GI50 was 1.06 µM and the TGI came out at 4.14 µM.

Regarding `Cc1[nH]c2ccccc2c1-c1cc(-c2cc(-c3c(C)[nH]c4ccccc34)on2)no1`, the TGI is above 100 µM.

For `Cn1cnc([N+](=O)[O-])c1S(=O)(=O)Oc1ccccc1`, the GI50 is 1.92 µM and the TGI was determined as 4.34 µM.

As to `COc1cc(C2c3cc4c(cc3C(O)C(CO)C2CO)OCO4)cc(OC)c1OC` (stereo not drawn), the GI50 is 0.37 µM and the TGI was above 100 µM.

In the case of `CCCNC(=S)/N=C/c1c(O)c2ccccc2[nH]c1=O`, the TGI is above 100 µM.

As for `COc1ccc(-c2oc(=O)ccc2-c2cc(OC)c(OC)c(OC)c2)cc1F`, the GI50 is 5.79 µM and the TGI is above 100 µM.

In the case of `O=C(c1ccc(F)c(F)c1Nc1ccc(I)cc1F)N1CC(O)([C@@H]2CCCCN2)C1`, the GI50 was < 0.0215 µM and 0.0563 µM; the TGI is 14.4 µM and > 10 µM.

Regarding `Oc1cc(O)c2c(c1)OC(c1ccc(O)c(O)c1)C(OC1(c3cc(O)c(O)c(O)c3)Oc3cc(O)cc(O)c3C(O)C1O)C2` (stereo not drawn), the TGI amounted to 60.4 µM.

With `COC12C=C/C(=C(/C(=O)OCc3ccncc3)C(=O)CCCCCCCCC3(OC)C=C/C(=C(/C(=O)OCc4ccncc4)C(=O)CCCCCCCC1)O3)O2`, the GI50 is 0.227 µM and the TGI amounted to 1.26 µM.

On to `CCOc1ccc2nc(S/C(=C/C=C(C#N)C#N)c3ccc(C)cc3)sc2c1`, for which the GI50 is 5.35 µM and the TGI came out at 35.8 µM.

In the case of `COc1cc(CNCCCN2C(=O)c3ccc4c5c(ccc(c35)C2=O)C(=O)N(CCCNCc2cc(OC)c(OC)c(OC)c2)C4=O)cc(OC)c1OC`, the GI50 was 0.203 µM and the TGI stood at 0.785 µM.

Consider `CC(C)=CCc1cc(O)cc2c1OC(C=C(C)C)C1=C2C(=O)C2=C(NCCS2(=O)=O)C1=O` (stereo not drawn), for which the GI50 is 2.32 µM and the TGI worked out at 5.78 µM.

Regarding `O=c1[nH]c(=O)n(C2CC(O)C(CO)O2)cc1CO` (stereo not drawn), the GI50 is above 100 µM and the TGI was above 100 µM.

`Cc1nc2cnc(N)c(C#Cc3cncc(C(=O)Nc4ccc(CN5CCN(C)CC5)c(C(F)(F)F)c4)c3)c2nc1C`: the GI50 was 0.279 µM and the TGI amounted to 3.21 µM.

As to `O=C1NC(=S)NNC12c1ccccc1-c1ccccc12`, the TGI is above 10 µM.

In turn, `CC(=O)OC12c3ccccc3-c3ccccc3C1C1C(=O)N(C)C(=O)C12Cl` (stereo not drawn) registered a TGI above 10 µM.

The compound `COc1ccc(C(O)c2nccn2C)c(OC)c1` (stereo not drawn) showed a TGI above 100 µM.

`C1CSCCSCCS1` showed a TGI above 100 µM.

In turn, `CC1=CC(=O)[C@@H](O)[C@]2(C)[C@H]3[C@@]4(O)OC[C@]35[C@H]([C@@H](C)[C@H]4O)[C@@H](O)C(=O)O[C@@H]5C[C@@H]12` had a TGI of 6.78 µM.

In turn, `CCSc1[nH]c(Nc2nc(-c3ccccc3)n(-c3ccccc3)n2)c(C(N)=O)c1C(N)=O` returned a TGI above 10 µM.

Regarding `COc1ccc2[nH]cc(-c3nc(-c4c[nH]c5ncccc45)cs3)c2c1`, the GI50 was 3.46 µM and the TGI was above 100 µM.

Compound `O=c1cc(-c2ccccc2)[nH]c2c(S)cccc12` registered a TGI above 100 µM.

Take `N#Cc1c(-c2ccc(F)cc2)c(-c2ccc(F)cc2)nn(CCO)c1=O`: the TGI is above 100 µM.

Regarding `CN(C)c1c([O-])c(=[N+](C)C)c1=O`, the TGI is above 100 µM.
